These results are taken from patent US4190672A, “Method and compositions of treating Parkinsonisms with levodopa and 3',4'-dihydroxy-2-methylisopropiophenone” (priority 1978, dated 1980).

Read-outs that look alike come from different tables or passages of the source.

In series [1] the test system is catechol-O-methyl transferase (COMT). Conditions: cited from earlier work.
A short description of series [2]: Behavioral responses and deaths in rats. It is filed as in vivo, Male Sprague-Dawley rats. As for the experimental part:
(§1) Male Sprague-Dawley rats weighing 200-300 g are fasted for 17 hours prior to the experiments. They are kept for at least two days on a day-light, night-dark cycle, and the experiments are conducted between 0900 and 1400 hours on the day following the fast. All injections are given intraperitoneally, and all drugs are given as a suspension in 1% methyl ceullulose.
1. Effect of DHMPP with time: Absolute control rats receive no injections. Levodopa controls are given levodopa, 250 mg/kg. Experimental animals are pretreated with DHMPP, 250 mg/kg, 30 min before receiving a combined injection of DHMPP and levodopa, each 250 mg/kg. Animals are decapitated at 30 min time intervals between 0 and 120 min after levodopa administration. Blood and brain are collected.
(§2) 2. Effect of dose of DHMPP: Absolute and levodopa control rats receive the same treatment as described above. Experimental rats were pretreated with DHMPP (50, 100, 150, 200 or 250 mg/kg) 30 min before receiving the injection of levodopa, 250 mg/kg. All animals are decapitated 90 min after receiving levodopa. Blood and brain are collected.

In series [3] the test system is COMT. Kind of series: Effect of DHMPP with time on plasma and brain levodopa, OMD and dopamine after levodopa administration. Format: in vivo, Male Sprague-Dawley rats. As for the experimental part: (§3) Male Sprague-Dawley rats weighing 200-300 g are fasted for 17 hours prior to the experiments. They are kept for at least two days on a day-light, night-dark cycle, and the experiments are conducted between 0900 and 1400 hours on the day following the fast. All injections are given intraperitoneally, and all drugs are given as a suspension in 1% methyl ceullulose. 1. Effect of DHMPP with time: Absolute control rats receive no injections. Levodopa controls are given levodopa, 250 mg/kg. […] Blood and brain are collected. […] Analytical procedures: […] The supernatants are collected and the above procedure is repeated on the residue. The combined supernatants are stored at -20° C. Blood samples are collected in heparinized tubes immediately after decapitation, chilled, and centrifuged, and the plasma is pipetted off. Plasma proteins are precipitated in 4 volumes ice-cold 0.4 M perchloric acid solution and centrifuged at 10,000 rpm for 15 min. Protein-free supernatants are decanted and stored at -20° C. […] Am. Soc. Neurochem. 4:105 (1973) Homovanillic acid (HVA) remains in the combined effluent and subsequent water wash; these eluates undergo solvent extractions and are assayed by the automated method of […]., et al., Biochem. […] Levodopa and OMD are eluted together and assayed according to the method of Fahn, S., et al., Anal. Biochem. 46:557 (1972). After dopamine is eluted, it is measured by the automated method of […]., Brit. J. Pharmacol. All eluates are assayed within 10 days of chromatography; they are stored at -20° C., thawed and mixed thoroughly before assay.

For series [4] the following is noted: crystalline solid; cited from earlier work.
Series [5] has as its system COMT. The series can be described thus: Effect of dose of DHMPP on plasma and brain OMD, levodopa and dopamine after levodopa treatment. Format: in vivo, Male Sprague-Dawley rats. The protocol: as §1, §2
3. Analytical procedures: Brains are chilled on ice, homogenized in 3 volumes ice-cold 0.4 M perchloric acid containing 0.025% ascorbic acid, and centrifuged at 15,000 rpm for 20 min. The supernatants are collected and the above procedure is repeated on the residue. The combined supernatants are stored at -20° C. Blood samples are collected in heparinized tubes immediately after decapitation, chilled, and centrifuged, and the plasma is pipetted off. Plasma proteins are precipitated in 4 volumes ice-cold 0.4 M perchloric acid solution and centrifuged at 10,000 rpm for 15 min. Protein-free supernatants are decanted and stored at -20° C. All samples are chromatographed within two days of the experiment.
Column chromatography of the sample extracts is carried out on a strong cation resin (Bio Rad AG 50-X8) according to the method of Prased, A. L. N., et al., Trans. Am. Soc. Neurochem. 4:105 (1973) Homovanillic acid (HVA) remains in the combined effluent and subsequent water wash; these eluates undergo solvent extractions and are assayed by the automated method of Prasad, A. L. N., et al., Biochem. Med. 9:136 (1974). Levodopa and OMD are eluted together and assayed according to the method of Fahn, S., et al., Anal. Biochem. 46:557 (1972). After dopamine is eluted, it is measured by the automated method of Atack, C. V., Brit. J. Pharmacol. All eluates are assayed within 10 days of chromatography; they are stored at -20° C., thawed and mixed thoroughly before assay.

Series [6] is described as follows: Effect of DHMPP with time on plasma and brain levodopa, OMD and dopamine after levodopa administration. Format: in vivo, Male Sprague-Dawley rats. As to conditions: rat, ip, 250 mg/kg. As for the experimental part: as §3
[7] abbreviates: DHMPP 250 mg/kg pretreatment plus DHMPP and levodopa 250 mg/kg each, i.p.
Where [8] appears, read: all doses of DHMPP, 90 min after levodopa.

In the case of `CC(C)C(=O)c1ccc(O)c(O)c1` [DHMPP, 3',4'-Dihydroxy-2-methyl-propiophenone], the “inhibition of COMT (literature)” value in series [1] is “inhibition of the enzyme catechol-O-methyl transferase (COMT)”. For the same compound, in series [2] (DHMPP 50-250 mg/kg i.p.), the “degree of lethargy versus dosage of DHMPP” value is on record as “related to the dosage of DHMPP employed”. The “motor activity and behavioral responses to DHMPP” value in series [2] (DHMPP i.p., within 10 min of injection) was “striking reduction in motor activity within 10 min of injection, including prostration, lying on one side, rapid breathing and loss of responsiveness to handling and other stimuli”. For the same compound, in series [2] (DHMPP plus levodopa, i.p.), the “piloerection in animals receiving both inhibitor and levodopa” value is listed as “Little piloerection is apparent”. Also, the “deaths at lower doses” value in series [2] (rat, in vivo) is “Deaths do not occur”. In series [2] (rat, in vivo, ip, 250 mg/kg), the “deaths, dose-response experiment” value is “two of six”. Moreover, in the series on COMT [3] (setting [7]), the “increase in plasma levodopa levels on inhibition of COMT” value was “three-fold” and the “prevention of measurable accumulation of OMD in plasma” value is reported as “completely prevents measurable accumulation of OMD in plasma”. In addition, the “increase in brain levodopa concentration with COMT inhibition” value with COMT [3] (DHMPP plus levodopa i.p., 30 min time point) is on record as “more than two-fold”. In addition, the “increase in brain dopamine level on inhibition of COMT” value in the series with COMT [3] (DHMPP plus levodopa i.p., at 60 min) was “more than two-fold”. The “accumulation of brain OMD on DHMPP treatment” value in the series with COMT [3] (DHMPP plus levodopa, i.p.) is “blocked”. Besides, in the series with COMT [3] (animals treated with DHMPP and levodopa), the “levodopa and dopamine concentrations in brain (conclusion)” value was “striking enhancement and prolongation of levodopa and dopamine concentrations in the brain”. Moreover, the “accumulation of 3-O-methylated derivatives of catechols in plasma and brain (conclusion)” value with COMT [3] (high dosage, acute levodopa administration) is “does inhibit the accumulation of 3-O-methylated derivatives of catechols in plasma and brain”. Besides, in series [4], the water solubility entry is “water-soluble”. Besides, the “inhibition of OMD accumulation in plasma relative to levodopa controls” value in the series on COMT [5] (DHMPP 100 mg/kg i.p., 90 min after levodopa) was “completely inhibits”. Also, in the series with COMT [5] (DHMPP 100 mg/kg or greater i.p., 90 min after levodopa), the “plasma OMD accumulation” value was “completely blocked”. Moreover, the plasma levodopa levels result in the series on COMT [5] (DHMPP 50-250 mg/kg i.p., 90 min after levodopa 250 mg/kg) is “not affected”. For the same compound, the “accumulation of OMD in brain” value in the series on COMT [5] (DHMPP 100 and 200 mg/kg i.p., 90 min after levodopa) is “inhibited”. For the same compound, the inhibition at 100 mg/kg in the series with COMT [5] (Rattus norvegicus, ip, 1.5 h, DHMPP 100 mg/kg i.p., 90 min after levodopa, read-out: inhibition of OMD accumulation in brain relative to levodopa controls) was 80%. In the series with COMT [5] (setting [8]), the “dopamine levels in brain” value is “not significantly altered” and the “levodopa levels in brain” value is listed as “not significantly altered”.
In the case of `N[C@@H](Cc1ccc(O)c(O)c1)C(=O)O` [levodopa, 3-(3,4-dihydroxyphenyl)-L-alanine], the “effect of levodopa on lethargic symptoms induced by DHMPP” value in series [2] (levodopa 250 mg/kg i.p. after DHMPP) is “markedly attenuates all lethargic symptoms induced by DHMPP, but does not abolish them”. Also, the “behavioral responses to levodopa” value in series [2] (levodopa 250 mg/kg i.p., all rats treated with levodopa) was “increased locomotor activity, erection of hair (piloerection), abnormal protrusion of the eyeball (exophthalmos) and other signs of sympathetic stimulation”. In addition, the “OMD accumulation in plasma after levodopa administration” value with COMT [3] (levodopa 250 mg/kg i.p.) is “progressively accumulates in plasma”. Further, the “time course of brain OMD levels” value with COMT [3] (rat, in vivo) is “rise slowly for the first 30 min in levodopa and absolute control animals and then increase more rapidly and linearly”. Besides, in the series on COMT [3] (rat, in vivo), the “time of maximal dopamine concentration in brain” value lay within 30 to 60 min. Also, in the series with COMT [3] (rat, in vivo, 240 min), the “brain OMD level” value worked out at 18 nmol/g. Besides, the Tmax in series [6] (in vivo, time of peak levodopa in brain) is 30 min; in series [6] (plasma, DHMPP plus levodopa i.p., after levodopa administration, read-out: time of peak plasma levodopa level with inhibition of COMT (converted)), 90 min; in series [6] (plasma, levodopa 250 mg/kg i.p., alone or with DHMPP, after levodopa injection, read-out: time of maximal plasma levels of levodopa (converted)), 30 min.

The inhibition is the drop in the measured response relative to a control, in per cent.
